Three compounds from ChEMBL document CHEMBL1150490, “Endothelin eceptor Ligands. Multiple D-Amino acid replacement net approach” (Bioorg Med Chem Lett, 1993) can be followed below.

The assay concerns the target T1, Endothelin-1 receptor (Mus musculus, UniProt Q61614).
T1 sequence (Q61614 whole entry): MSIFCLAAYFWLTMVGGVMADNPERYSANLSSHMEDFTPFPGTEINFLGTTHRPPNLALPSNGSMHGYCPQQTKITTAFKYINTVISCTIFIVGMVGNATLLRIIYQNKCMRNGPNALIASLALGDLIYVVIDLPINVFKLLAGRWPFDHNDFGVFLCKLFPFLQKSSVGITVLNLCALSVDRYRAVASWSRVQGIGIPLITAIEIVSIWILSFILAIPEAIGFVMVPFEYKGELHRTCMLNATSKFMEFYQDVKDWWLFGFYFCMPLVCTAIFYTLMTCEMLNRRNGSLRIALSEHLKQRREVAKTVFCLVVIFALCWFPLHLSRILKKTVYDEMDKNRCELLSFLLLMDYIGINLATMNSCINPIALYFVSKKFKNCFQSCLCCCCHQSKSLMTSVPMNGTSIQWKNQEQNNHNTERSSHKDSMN
Nature of the assay: Binding affinity for Endothelin A receptor was determined in murine 3T3 cells. It is filed as cell-based, NIH3T3.

As for `CC[C@H](C)[C@H](NC(=O)[C@@H](NC(=O)[C@@H](CC(=O)O)NC(=O)[C@H](N)CCCNC(=O)[C@H](Cc1ccccc1)NC(C)=O)[C@@H](C)CC)C(=O)N[C@@H](Cc1c[nH]c2ccccc12)C(=O)O`, the IC50 came out at 250 nM.
As for `CC[C@H](C)[C@H](NC(=O)[C@H](CC(=O)O)NC(=O)[C@@H](N)CCCNC(=O)[C@H](Cc1ccccc1)NC(C)=O)C(=O)N[C@H](C(=O)N[C@@H](Cc1c[nH]c2ccccc12)C(=O)O)[C@@H](C)CC`, the figure is 230 nM; as for `CC[C@H](C)[C@H](NC(=O)[C@H](CC(=O)O)NC(=O)[C@H](N)CCCNC(=O)[C@H](Cc1ccccc1)NC(C)=O)C(=O)N[C@@H](C(=O)N[C@@H](Cc1c[nH]c2ccccc12)C(=O)O)[C@@H](C)CC`, 900 nM.

In general, IC50 refers to the concentration that inhibits the measured activity by half.
